What was measured:
SCARB2 = molecular target: T1, SCARB2 (Homo sapiens, UniProt Q14108); experiment: PISA thermal profiling, intact HepG2 cells; assay type: cell-based; conditions: 30 µM, 60 min, n=3
T1 construct: endogenous in cells; host or cells: intact HepG2 cells
Protocol: (§1) To further corroborate our findings, we next performed the proteome integral solubility alteration (PISA) assay in HepG2 human hepatoma cells that express high levels of CHKA. Conceptually building on the cellular thermal shift assay (CETSA) with mass spectrometry based detection,[19, 20] PISA leverages compound‐mediated stabilisation of target proteins without the need of chemical modification in intact cells. […]
(§2) Experiments were performed as described earlier with few modifications. In short, 3 replicates of intact HepG2 cells were treated with 30 µM UNC0638, UNC373 or corresponding volume of DMSO in medium-free experimental buffer for 60 min at 37 °C with end-over-end rotation. For lysates: Washed […]
(§3) end-over-end rotation. Each treated cell suspension or lysate was divided into 12 aliquots and subjected to a 12-step heat gradient from 44 °C to 64 °C. All the temperature points were pooled together to form […] individual samples. Soluble fraction was separated from precipitated proteins […]
(§4) by centrifugation at 30,000 × g for 20 min at 4 °C. The soluble fractions were collected to fresh tubes and further processed to be analysed with mass spectrometry. Sample handling, TMT labelling, LC-MS/MS analysis, protein identification and data analysis was performed as described earlier.[12] […]
(§5) […]

TGOLN2 = molecular target: T2, TGOLN2 (Homo sapiens, UniProt O43493); experiment: PISA thermal profiling, intact HepG2 cells; assay type: cell-based; conditions: 30 µM, 60 min, n=3
T2 construct: endogenous in cells; host or cells: intact HepG2 cells
T2 sequence (O43493 22-437): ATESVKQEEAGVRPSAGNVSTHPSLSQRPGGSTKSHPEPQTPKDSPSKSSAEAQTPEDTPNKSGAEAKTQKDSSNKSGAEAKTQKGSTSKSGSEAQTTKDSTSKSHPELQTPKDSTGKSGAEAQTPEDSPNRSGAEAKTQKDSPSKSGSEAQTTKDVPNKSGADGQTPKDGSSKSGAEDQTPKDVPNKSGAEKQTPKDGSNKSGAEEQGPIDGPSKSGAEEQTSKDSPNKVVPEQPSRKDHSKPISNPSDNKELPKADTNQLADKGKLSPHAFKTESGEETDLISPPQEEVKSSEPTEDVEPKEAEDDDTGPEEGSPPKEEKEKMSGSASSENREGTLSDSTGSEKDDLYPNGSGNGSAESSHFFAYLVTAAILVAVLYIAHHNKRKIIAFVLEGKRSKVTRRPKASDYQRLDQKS
Protocol: as §1, §2, §3, §4, §5

[1] = tested on: human peripheral blood mononuclear cells (PBMC); experiment: B-cell assay with stimulated PBMCs from healthy donors; assay type: cell-based; conditions: for cell viability (live CD19+ B cells, flow cytometry) / stimulation‐induced B cell maturation (CD27+IgD− memory B cells of live CD19+ B cells): 6 days of culture; for IgG secretion: stimulated PBMCs from healthy human blood donors, 6 days, dose-dependent; for stimulation‐induced B cell maturation (CD27+IgD− memory B cells of live CD19+ B cells): three healthy donors
Protocol: as §5

[2] = tested on: primary human cell‐based tissue and disease models; experiment: BioMAP Diversity PLUS panel; conditions: for clustering of overall BioMAP responses across all biomarkers: 12 systems, Pearson's correlation >0.7; for IgG secretion, BioMAP PBMC panel: BioMAP B cell profiling
Excerpt: Having confirmed that UNC0638 and UNC0737 are potent bona fide CHKA inhibitors, we next turned our attention to further investigate the role of CHKA in cellular signalling. While CHKA has been studied extensively in the context of malignant disease, there has been a growing acknowledgment of its relevance in immune metabolism.[9, 10] […] We profiled UNC0638 and UNC0737 alongside the orthogonal CHKA inhibitors V‐11‐0711 and ARIAD against the BioMAP Diversity PLUS panel (Figures S7).[24] This set comprises 148 distinct biomarkers across 12 systems, including panels for systemic immune responses. […] The decrease in IgG secretion was accompanied by a reduction in stimulation‐induced B cell maturation into CD27^+IgD^− memory CD19^+ B cells (Figure 4D). […]
consecutive concentrations change in the same direction relative to vehicle controls, are outside of the significance envelope, and have at least one concentration with an effect size > 20% (|log10ratio| > 0.1). Biomarker key activities are described as modulated if these activities increase in some systems, but decrease in others. Cytotoxicity is indicated on the profile plot by a thin black arrow above the x- […]
Cytotoxicity and antiproliferative arrows only require one concentration to meet the indicated threshold for profile annotation. […]

T1 sequence (Q14108 whole entry): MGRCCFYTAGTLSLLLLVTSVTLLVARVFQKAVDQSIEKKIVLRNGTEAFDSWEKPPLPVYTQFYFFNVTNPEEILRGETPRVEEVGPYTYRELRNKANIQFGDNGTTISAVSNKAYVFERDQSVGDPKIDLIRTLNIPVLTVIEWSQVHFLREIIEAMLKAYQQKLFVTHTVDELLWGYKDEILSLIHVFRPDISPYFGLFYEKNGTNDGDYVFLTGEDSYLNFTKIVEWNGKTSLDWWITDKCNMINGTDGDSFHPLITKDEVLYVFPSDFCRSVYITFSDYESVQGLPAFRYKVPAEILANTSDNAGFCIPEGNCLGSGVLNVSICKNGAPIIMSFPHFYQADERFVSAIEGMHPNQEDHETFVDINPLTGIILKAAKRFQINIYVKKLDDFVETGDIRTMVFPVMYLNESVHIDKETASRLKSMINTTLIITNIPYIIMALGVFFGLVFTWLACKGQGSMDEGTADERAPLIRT

Compound	effect_CETSA_Intact (PISA amplitude), SCARB2 (SCARB2)	effect_CETSA_Intact (PISA amplitude), TGOLN2 (TGOLN2)	cell viability (live CD19+ B cells, flow cytometry) [1]	IgG secretion [1]	stimulation‐induced B cell maturation (CD27+IgD− memory B cells of live CD19+ B cells) [1]	clustering of overall BioMAP responses across all biomarkers [2]	IgG secretion, BioMAP PBMC panel [2]
COc1cc2c(NC3CCN(C(C)C)CC3)nc(C3CCCCC3)nc2cc1OCCCN1CCCC1 [UNC0638]	0.251	0.53	not markedly affected	reduction of IgG secretion	reduce	clustered together with the known CHKA inhibitors	significant effects on IgG secretion
COc1cc2c(N(C)C3CCN(C(C)C)CC3)nc(C3CCCCC3)nc2cc1OCCCN1CCCC1 [UNC0737]	0.514	0.571	not markedly affected	reduction of IgG secretion	reduce	clustered together with the known CHKA inhibitors	significant effects on IgG secretion

Reference: publication PMC11811597, “Phenomics‐Based Discovery of Novel Orthosteric Choline Kinase Inhibitors” (Angewandte Chemie (International Ed. in English), 2025)
